Counter-ions that a name gives are not always drawn.
The compounds below were run on IL-1β release upon NLRP3 activation in peripheral blood mononuclear cells (PBMC) (assay: PBMC IC50 determination assay: inhibition of IL-1β release upon NLRP3 activation). Settings: PBMC, PBMC primed with LPS 3 h, compound 30 min, stimulated with ATP (5 mM) or nigericin (10 μM) 1 h; IL-1β by ELISA (Protocol A) or HTRF (Protocol B).
Assay type: cell-based
Procedure: PBMC IC50 determination assay. The compounds of the present disclosure were tested for their inhibitory activity against IL-1β release upon NLRP3 activation in peripheral blood mononuclear cells (PBMC).
Protocol A. PBMC were isolated from buffy coats by density gradient centrifugation on Histopaque-1077 (Sigma, cat no. 10771). Isolated cells were seeded into the wells of a 96-well plate and incubated for 3 h with lipopolysaccharide (LPS). Following medium exchange, the compounds of the present disclosure were added (a single compound per well) and the cells were incubated for 30 min. Next, the cells were stimulated either with ATP (5 mM) or nigericin (10 μM) for 1 h and the cell culture media from the wells were collected for further analysis.
The release of IL-1β into the media was determined by a quantitative detection of IL-1β in the media using an IL-1β enzyme-linked immunosorbent assay (ELISA) Ready-SET-Go!, eBioscience cat. No. 88-7261-88. Briefly, in a first step, high affinity binding plates (Corning, Costar 9018 or NUNC Maxisorp Cat No. 44-2404) were coated overnight at 4° C. with specific capture antibody included in the kit (anti-human IL-1β ref. 14-7018-68). Subsequently, plates were blocked with blocking buffer for 1 h at room temperature (rt) and after washing with a buffer (PBS with 0.05% Tween-20) incubated with protein standard and culture media. After 2 h of incubation at rt, plates were washed and incubated with biotinylated detection antibody included in the kit (anti-human IL-1β Biotin ref 33-7110-68) for 1 h at rt. Plates were washed and incubated with HRP-streptavidin for 30 min at rt and washed again. The signal was developed after addition of 3,3′,5,5′-tetramethylbenzidine-peroxidase (TMB) until colour appeared and the reaction was stopped by 2 M H2SO4. A microplate spectrophotometer (BioTek) was used to detect signals with 450 nm. The detection range of IL-1β ELISA was […].
Protocol B. PBMC were isolated from buffy coats by density gradient centrifugation on Histopaque-1077 (Sigma, cat no. 10771). Isolated cells were seeded into the wells (280,000 cells/well) of a 96-well plate and incubated for 3 h with lipopolysaccharide (LPS, 1 μg/mL diluted 1000× from a 1 mg/mL stock solution). The compounds of the present disclosure were added (a single compound per well) and the cells were incubated for 30 min. Next, the cells were stimulated with ATP (5 mM final concentration diluted 20× from a 100 mM stock solution) for 1 h and the cell culture media from the wells were collected for further analysis.
The release of IL-1β into the media was determined by quantitative detection of IL-1β in the media using HTRF®, CisBio cat. No. 62HIL1BPEH. Briefly, cell culture supernatant were dispensed directly into the assay plate containing antibodies labelled with the HTRF® donor and acceptor. A microplate spectrophotometer (BMG) was used to detect signals at 655 nm and 620 nm. The detection range of IL-1β HTRF® was 39-6500 μg/mL.

| Compound | IC50 [nM] |
| --- | --- |
| CC(C)c1nn(CC(=O)NC2CC3(COC3)C2)c(=O)c2cnc(C3CC3)cc12 [Compound 18, 2-(7-Cyclopropyl-1-isopropyl-4-oxo-pyrido[3,4-d]pyridazin-3-yl)-N-(2-oxaspiro[3.3]heptan-6-yl)acetamide] | 10000 to 50000 |
| CNc1cc2c(C)nn(CC(=O)Nc3ncccn3)c(=O)c2s1 [Compound 118, 2-[4-methyl-2-(methylamino)-7-oxo-6H,7H-thieno[2,3-d]pyridazin-6-yl]-N-(pyrimidin-2-yl)acetamide] | 1000 to 3000 |
| CCc1nn(CC(=O)Nc2ncc(F)cn2)c(=O)c2ccc(C3CC3)nc12 [Compound 33, 2-(2-Cyclopropyl-8-ethyl-5-oxo-pyrido[2,3-d]pyridazin-6-yl)-N-(5-fluoropyrimidin-2-yl)acetamide] | 100 to 1000 |
| CCc1nn(CC(=O)Nc2ncccn2)c(=O)c2sc(NC)cc12 [Compound 114, 2-[4-ethyl-2-(methylamino)-7-oxo-6H,7H-thieno[2,3-d]pyridazin-6-yl]-N-(pyrimidin-2-yl)acetamide] | 100 to 1000 |
| CCc1nn(CC(=O)Nc2ncccn2)c(=O)c2ccc(C3CC3)nc12 [Compound 32, 2-(2-Cyclopropyl-8-ethyl-5-oxo-pyrido[2,3-d]pyridazin-6-yl)-N-pyrimidin-2-yl-acetamide] | 100 to 1000 |
| Cc1nn(CC(=O)Nc2ncccn2)c(=O)c2sc(C3CC3)cc12 [Compound 88, 2-{2-Cyclopropyl-4-methyl-7-oxo-6H,7H-thieno[2,3-d]pyridazin-6-yl}-N-(pyrimidin-2-yl)acetamide] | 100 to 1000 |
| CCc1ccc2c(=O)n(CC(=O)Nc3ncccn3)nc(C(C)C)c2n1 [Compound 42] | 100 to 1000 |
| CC(C)c1nn(CC(=O)Nc2ncco2)c(=O)c2cn(C3CC3)nc12 [Compound 73, 2-(2-Cyclopropyl-7-isopropyl-4-oxo-2,4-dihydro-5H-pyrazolo[3,4-d]pyridazin-5-yl)-N-(oxazol-2-yl)acetamide] | 100 to 1000 |
| CCc1cc2c(C(C)C)nn(CC(=O)Nc3ncc(F)cn3)c(=O)c2s1 [Compound 24, 2-(2-Ethyl-4-isopropyl-7-oxo-thieno[2,3-d]pyridazin-6-yl)-N-(5-fluoropyrimidin-2-yl) acetamide] | ≤ 100 |
| CC(C)c1nn(CC(=O)N[C@@H]2CCCN(C3CC3)C2)c(=O)c2cn(C)nc12 [Compound 3, N-[(3R)-1-Cyclopropyl-3-piperidyl]-2-(7-isopropyl-2-methyl-4-oxo-pyrazolo[3,4-d]pyridazin-5-yl)acetamide] | 3000 to 10000 |
| CC(C)c1nn(CC(=O)N[C@H]2C[C@@](C)(O)C2)c(=O)c2cn(C(C)C)nc12 [Compound 68, 2-(2,7-Diisopropyl-4-oxo-2,4-dihydro-5H-pyrazolo[3,4-d]pyridazin-5-yl)-N-((cis)-3-hydroxy-3-methylcyclobutyl)acetamide] | 1000 to 3000 |
| CCc1cc2c(=O)n(CC(=O)Nc3ncc(F)cn3)nc(C(C)C)c2o1 [Compound 23, 2-(2-Ethyl-7-isopropyl-4-oxo-furo [2,3-d]pyridazin-5-yl)-N-(5-fluoropyrimidin-2-yl) acetamide] | 100 to 1000 |
| CCNc1cc2c(C(C)C)nn(CC(=O)Nc3ncccn3)c(=O)c2s1 [Compound 78, 2-(2-(Ethylamino)-4-isopropyl-7-oxothieno[2,3-d]pyridazin-6(7H)-yl)-N-(pyrimidin-2-yl)acetamide] | ≤ 100 |
| CC(C)c1nn(CC(=O)Nc2ncccn2)c(=O)c2sc(NCC(F)(F)F)cc12 [Compound 100, 2-[7-Oxo-4-(propan-2-yl)-2-[(2,2,2-trifluoroethyl)amino]-6H,7H-thieno[2,3-d]pyridazin-6-yl]-N-(pyrimidin-2-yl)acetamide] | 1000 to 3000 |
| CCn1cc2c(=O)n(CC(=O)N[C@H]3CCCN4CCC[C@@H]34)nc(C(C)C)c2n1 (stereo in doubt) [Compound 7, N-[Cis-1,2,3,5,6,7,8,8a-octahydroindolizin-8-yl]-2-(2-ethyl-7-isopropyl-4-oxo-pyrazolo[3,4-d]pyridazin-5-yl) acetamide hydrochloride] | 1000 to 3000 |
| CC(C)c1nn(CC(=O)N[C@@H]2CCCN(C3CCC3)C2)c(=O)c2sc(Br)cc12 [Compound 29, 2-(2-Bromo-4-isopropyl-7-oxo-thieno[2,3-d]pyridazin-6-yl)-N-[(3R)-1-cyclobutyl-3-piperidyl]acetamide] | 100 to 1000 |
| CC(C)c1nn(CC(=O)N[C@@H]2CCCN(C3CC3)C2)c(=O)c2ncn(C)c12 [Compound 14, N-[(3R)-1-Cyclopropyl-3-piperidyl]-2-(7-isopropyl-1-methyl-4-oxo-imidazo[4,5-d]pyridazin-5-yl)acetamide] | 10000 to 50000 |
| CC(C)c1nn(CC(=O)N[C@H]2C[C@@](C)(O)C2)c(=O)c2sc(Br)cc12 [Compound 74, 2-(2-Bromo-4-isopropyl-7-oxothieno[2,3-d]pyridazin-6(7H)-yl)-N-(cis-3-hydroxy-3-methylcyclobutyl)acetamide] | 1000 to 3000 |
| COc1cc2c(=O)n(CC(=O)Nc3ncccn3)nc(C(C)C)c2o1 [Compound 108, 2-[2-Methoxy-4-oxo-7-(propan-2-yl)-4H,5H-furo[2,3-d]pyridazin-5-yl]-N-(pyrimidin-2-yl)acetamide] | 3000 to 10000 |
| CNc1cc2c(C3CC3)nn(CC(=O)Nc3ncccn3)c(=O)c2s1 [Compound 112, 2-[4-Cyclopropyl-2-(methylamino)-7-oxo-6H,7H-thieno[2,3-d]pyridazin-6-yl]-N-(pyrimidin-2-yl)acetamide] | 100 to 1000 |
| Cc1nn(CC(=O)Nc2ccc3nncn3c2)c(=O)c2cc(C3CC3)oc12 [Compound 103, 2-{2-Cyclopropyl-7-methyl-4-oxo-4H,5H-furo[2,3-d]pyridazin-5-yl}-N-{[1,2,4]triazolo[4,3-a]pyridin-6-yl}acetamide] | 1000 to 3000 |
| COCCNc1cc2c(C(C)C)nn(CC(=O)Nc3ncccn3)c(=O)c2s1 [Compound 96, 2-{2-[(2-Methoxyethyl)amino]-7-oxo-4-(propan-2-yl)-6H,7H-thieno[2,3-d]pyridazin-6-yl}-N-(pyrimidin-2-yl)acetamide] | 10000 to 50000 |
| Cc1nn(CC(=O)N[C@@H]2CCCN(C3CCC3)C2)c(=O)c2ccc(C3CC3)nc12 [Compound 47] | 100 to 1000 |
| Cc1nn(CC(=O)N[C@@H]2CCCN(C)C2)c(=O)c2ccc(C3CC3)nc12 [Compound 46] | 1000 to 3000 |
| CCn1cc2c(=O)n(CC(=O)N[C@@H]3CCCN(C)C3)nc(C(C)C)c2n1 [Compound 6, 2-(2-Ethyl-7-isopropyl-4-oxo-pyrazolo[3,4-d]pyridazin-5-yl)-N-[(3R)-1-methyl-3-piperidyl]acetamide] | 10000 to 50000 |
| CCOC(=O)c1cnc(NC(=O)Cn2nc(C(C)C)c3oc(C4CC4)cc3c2=O)nc1 [Compound 80, Ethyl 2-(2-(2-cyclopropyl-7-isopropyl-4-oxofuro[2,3-d]pyridazin-5(4H)-yl)acetamido)pyrimidine-5-carboxylate] | 100 to 1000 |
| CC(C)c1nn(CC(=O)N[C@H]2C[C@@](C)(O)C2)c(=O)c2cc(C3CC3)oc12 [Compound 81, 2-(2-Cyclopropyl-7-isopropyl-4-oxofuro[2,3-d]pyridazin-5(4H)-yl)-N-((1s,3s)-3-hydroxy-3-methylcyclobutyl)acetamide] | 100 to 1000 |
| Cc1nc(NC(=O)Cn2nc(C(C)C)c3nc(C4CC4)ccc3c2=O)ns1 [Compound 26, 2-(2-Cyclopropyl-8-isopropyl-5-oxo-pyrido[2,3-d]pyridazin-6-yl)-N-(5-methyl-1,2,4-thiadiazol-3-yl)acetamide] | 100 to 1000 |

Reference: patent publication US20250066369A1, “BICYCLIC PHTHALAZIN-1(2H)-ONE DERIVATIVES AND RELATED USES” (NodThera Limited, priority 2022, published 2025)
